From ChEMBL document CHEMBL3792388, “Ecdysones from Zoanthus spp. with inhibitory activity against dengue virus 2” (Bioorg Med Chem Lett, 2016)

Assays:
[1] = test system: dengue virus type 2; test: Antiviral activity against Dengue virus 2 DN454009A infected in human HuH7 cells assessed as inhibition of viral RNA level measured 72 hrs post infection by qRT-PCR method; type: functional, organism-based; conditions: Huh-7, 72 h
[2] = Cytotoxicity against human HuH7 cells assessed as reduction in cell viability after 72 hrs by MTS assay; type: cell-based, Huh-7
[3] = Selectivity index, ratio of CC50 for human HuH7 cells to EC50 for Dengue virus 2 DN454009A infected in human HuH7 cells; type: toxicity, cell-based, Huh-7; conditions: read-out: Ratio CC50/EC50
[4] = test system: dengue virus type 1; test: Antiviral activity against Dengue virus 1 DN8700828 infected in human HuH7 cells assessed as inhibition of viral RNA level measured 72 hrs post infection by qRT-PCR method; type: functional, organism-based; conditions: DN8700828, Huh-7, 72 h
[5] = test system: dengue virus type 3; test: Antiviral activity against Dengue virus 3 DN8700829A infected in human HuH7 cells assessed as inhibition of viral RNA level measured 72 hrs post infection by qRT-PCR method; type: functional, organism-based; conditions: Huh-7, 72 h
[6] = test system: dengue virus type 4; test: Antiviral activity against Dengue virus 4 S9201818 infected in human HuH7 cells assessed as inhibition of viral RNA level measured 72 hrs post infection by qRT-PCR method; type: functional, organism-based; conditions: S9201818, Huh-7, 72 h

SMILES	EC50 [1]	CC50 at 72 h [2]	selectivity ratio [3]	EC50 [4]	EC50 [5]	EC50 [6]
CC(C)(O)CC[C@@H](O)[C@](C)(O)[C@H]1CC[C@@]2(O)C3=CC(=O)[C@@H]4C[C@@H](O)CC[C@]4(C)[C@H]3CC[C@]12C	> 100 µM	> 700 µM				
CC(C)CC[C@@H](O)[C@](C)(O)[C@H]1CC[C@@]2(O)C3=CC(=O)[C@@H]4C[C@@H](O)[C@@H](O)C[C@]4(C)[C@H]3[C@H](O)C[C@]12C	10.1 µM	> 700 µM	> 69.7	15.7 µM	9.48 µM	12.2 µM
C[C@H]([C@H](O)CCC(C)(C)O)[C@H]1CC[C@@]2(O)C3=CC(=O)[C@@H]4C[C@@H](O)[C@@H](O)C[C@]4(C)[C@H]3CC[C@]12C [ECDYSONE]	54.3 µM	> 700 µM	> 12.9			
CC(CO)CC[C@@H](O)[C@](C)(O)[C@H]1CC[C@@]2(O)C3=CC(=O)[C@@H]4C[C@@H](O)[C@@H](O)C[C@]4(C)[C@H]3CC[C@]12C (some centres not stated) [INOKOSTERONE]	> 100 µM	> 700 µM				
CC(C)CC[C@@H](O)[C@](C)(O)[C@H]1CC[C@@]2(O)C3=CC(=O)[C@@H]4C[C@@H](O)[C@@H](O)C[C@]4(C)[C@H]3CC[C@]12C [PONASTERONE A]	> 100 µM	> 700 µM				
CC(C)(O)CC[C@@H](O)[C@](C)(O)[C@H]1CC[C@@]2(O)C3=CC(=O)[C@@H]4C[C@@H](O)[C@@H](O)C[C@]4(C)[C@H]3[C@H](O)C[C@]12C [TURKESTERONE]	38.1 µM	> 700 µM	> 18.3			

Further lines, with some results ahead:

EC50 [1]	SMILES	CC50 at 72 h [2]	selectivity ratio [3]	EC50 [4]	EC50 [5]	EC50 [6]
87.3 µM	CC(=O)O[C@@H]1C[C@H]2C(=O)C=C3[C@H](CC[C@]4(C)[C@@H]([C@@](C)(O)[C@H](O)CCC(C)(C)O)CC[C@@]34O)[C@@]2(C)C[C@@H]1O	> 700 µM	> 8			
39.8 µM	CC(=O)OC(C)(C)CC[C@@H](O)[C@](C)(O)[C@H]1CC[C@@]2(O)C3=CC(=O)[C@@H]4C[C@@H](O)[C@@H](O)C[C@]4(C)[C@H]3CC[C@]12C	> 700 µM	> 17.6			
19.6 µM	CC(=O)OC(C)(C)CC[C@@H](O)[C@](C)(O)[C@H]1CC[C@@]2(O)C3=CC(=O)[C@@H]4C[C@@H](O)[C@@H](O)C[C@]4(C)[C@H]3[C@H](O)C[C@]12C	> 700 µM	> 36.7			
> 100 µM	C=C(C[C@@H](O)[C@](C)(O)[C@H]1CC[C@@]2(O)C3=CC(=O)[C@@H]4C[C@@H](O)[C@@H](O)C[C@]4(C)[C@H]3CC[C@]12C)C(C)(C)O	> 700 µM				
> 100 µM	C[C@H](O)[C@H]1CC[C@@]2(O)C3=CC(=O)[C@@H]4C[C@@H](O)[C@@H](O)C[C@]4(C)[C@H]3CC[C@]12C	> 700 µM				
11.2 µM	C[C@@]1(O)[C@H](O)[C@@H](CO)O[C@H]1n1ccc(N)nc1=O	94.8 µM	> 8.5			
53.6 µM	CC(C)(O)CC[C@@H](O)[C@](C)(O)[C@H]1CC[C@@]2(O)C3=CC(=O)[C@@H]4C[C@@H](O)[C@@H](O)C[C@]4(C)[C@H]3CC[C@]12C [20-HYDROXYECDYSONE]	> 700 µM	> 13.1			
